Results from PubChem BioAssay (NCI).
Values joined by “and” are separate entries in the source; they are usually repeats but may differ in a detail not shown here. Equal entries are not always repeated.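 Five compound concentrations were applied to cells in 96-well plates for 48 hours; endpoints were derived by simple linear interpolation of the resulting dose-response curve. Here, GI50 denotes the concentration required for 50% inhibition of growth. Definition used: TGI = concentration required for complete inhibition of growth.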

How the values were obtained:
Assay in all cases: inhibition of tumour cell growth, NCI panel, 48 h
[1] = system: U251 CNS
[2] = system: SW-620 colon
[3] = system: HT29 colon
[4] = system: DLD-1 colon
[5] = system: HCT-116 colon
[6] = system: CAKI-1 renal
[7] = system: SF-268 CNS
[8] = system: MOLT-4 leukemia
[9] = system: UACC-257 melanoma
[10] = system: HL-60(TB) leukemia

| Compound | TGI [1] [µM] | TGI [2] | TGI [3] [µM] | TGI [4] [µM] | TGI [5] [µM] | TGI [6] | TGI [7] | TGI [8] [µM] | TGI [9] | TGI [10] | GI50 [1] [µM] | GI50 [2] [µM] | GI50 [3] [µM] | GI50 [5] [µM] | GI50 [6] [µM] | GI50 [7] [µM] | GI50 [8] [µM] | GI50 [9] [µM] | GI50 [10] [µM] |
| --- | --- | --- | --- | --- | --- | --- | --- | --- | --- | --- | --- | --- | --- | --- | --- | --- | --- | --- | --- |
| Cc1cccc(C)c1N1C(=O)C(=O)C(c2nc3ccccc3s2)/C(=N/NC(=O)c2ccccc2O)C1=O (stereo not drawn) | > 100 | > 100 µM | > 100 | > 100 | > 79.5 | > 29.8 µM | > 68.8 µM | > 100 | 68.2 µM | 43.1 µM |  |  |  |  |  |  |  |  |  |
| CCOc1ccc(NCC2CC/C(=C\c3ccccc3OC)C2=O)cc1 (stereo not drawn) | 27.8 | 14.3 µM | 7.78 | 13.6 | 14.5 | 25.4 µM | 20.8 µM | 20.9 | 20 µM | > 23.7 µM |  |  |  |  |  |  |  |  |  |
| CCCCCCCCCCCCCCCCOP(=O)([O-])OCC[N+](C)(C)C |  | 13.9 µM and 57 µM |  | 62.2 |  | 2.99 µM and 27.7 µM | 13.7 µM and 52.7 µM |  | 6.98 µM and 64.7 µM | 3.84 µM and 16.3 µM | 1.05 | 2.08 | 0.39 | 1.49 | 0.931 | 2.93 | 0.868 | 2.31 | 0.897 |
| O=S(=O)(N=NC=C1c2ccccc2N(O)c2ccccc21)c1ccc(Cl)cc1 | > 100 | > 100 µM | > 100 | > 100 | > 100 | > 100 µM | > 100 µM | > 100 | > 100 µM | > 100 µM |  |  |  |  |  |  |  |  |  |
| COC(=O)/C(C#N)=C(\N)C(Cl)(Cl)Cl | 31.7 | 1.84 µM |  | 3.52 | 2.25 | 17.5 µM | 14.7 µM | 3.2 | 12.6 µM | 1.32 µM |  |  |  |  |  |  |  |  |  |
| N/N=C(\c1nc2ccc(Cl)cc2[nH]c1=O)C(O)c1ccc(Cl)c(Cl)c1 (stereo not drawn) | > 100 | > 100 µM | > 100 | > 100 | > 100 |  | > 100 µM | > 100 | > 100 µM | > 100 µM |  |  |  |  |  |  |  |  |  |
| C=CCC1(C(=O)OC(C)(C)C)C(OC)=C(C(=O)OC(C)(C)C)C2C1C(C(=O)OC(C)(C)C)=C(OC)C2(CC=C)C(=O)OC(C)(C)C (stereo not drawn) |  | > 100 µM |  | > 100 |  |  | > 100 µM | > 100 | > 100 µM | > 100 µM |  |  |  |  |  |  |  |  |  |
| Cc1ccc2nc3cc(C)c(=O)cc-3sc2c1 | > 100 | > 100 µM | > 100 | > 100 | > 100 | > 100 µM | > 100 µM | > 100 | > 100 µM | 64.7 µM |  |  |  |  |  |  |  |  |  |
| CCCN(CCC)C(=O)c1nc(N)nc(-c2ccc(OC)cc2)c1-c1ccc(OC)cc1 | > 100 | > 100 µM | > 100 | > 100 | > 100 | > 100 µM | > 100 µM | > 100 | > 100 µM | > 100 µM |  |  |  |  |  |  |  |  |  |
| COC1CCC(OC)C(C2(C3CC(OC)CCC3OC)OC(=O)c3ccccc32)C1 (stereo not drawn) | > 100 | > 100 µM | > 100 | > 100 | > 100 | > 100 µM | > 100 µM | 89.3 | > 100 µM | 45.1 µM |  |  |  |  |  |  |  |  |  |
| Cc1nc(/C=C2\C(=O)C=Cc3ccccc32)c(O)o1 | > 100 | > 100 µM | > 100 | > 100 | > 100 |  | > 100 µM | > 100 | > 100 µM | > 100 µM |  |  |  |  |  |  |  |  |  |
| O=C1CNC(=O)c2[nH]cnc2N1 | > 100 | > 100 µM | > 100 | > 100 |  |  | > 100 µM | > 100 |  | > 100 µM |  |  |  |  |  |  |  |  |  |
| CC(=O)NNc1nc(C)c(C(=O)/C=C/c2ccc(Cl)cc2)s1 | > 100 | > 100 µM | > 100 | > 100 |  | > 100 µM | > 100 µM | > 100 | > 100 µM | > 100 µM |  |  |  |  |  |  |  |  |  |
| C#CC1(O)CCC2[C@@H]3CCc4cc(Oc5nc(F)nc(-c6c7ccccc7c(SCC)n6CCC)n5)ccc4C3CC[C@@]21C (stereo partly drawn) | > 100 | > 100 µM | > 100 | > 100 | > 100 |  | > 100 µM | > 100 | > 100 µM | > 100 µM |  |  |  |  |  |  |  |  |  |
| O=C(Nc1ccccc1-c1nn(CN2CCNCC2)c(=S)n(CN2CCNCC2)c1=O)C(F)(F)F | 31.7 | 22.2 µM | 57.5 | 33.3 | 32.5 | 55.2 µM | 41.8 µM | > 100 | 31 µM | 43.2 µM |  |  |  |  |  |  |  |  |  |
